{"source": "paper PMC7714403", "about": "(JCI Insight, 2020)", "key": {"[1]": {"target": "T1, ALK (Homo sapiens, UniProt Q9UM73)", "T1 construct": "purchased Eurofins DiscoverX", "assay": "KdELECT binding assay"}, "[2]": {"target": "T2, CHEK2 (Homo sapiens, UniProt O96017)", "T2 construct": "purchased Eurofins DiscoverX", "assay": "KdELECT binding assay"}, "[3]": {"tested_on": "Ba/F3-FLT3-ITD/F691L-GFP+ cells", "assay": "Ba/F3 FLT3-ITD/F691L-GFP+ xenograft model", "type": "in vivo, NSG mice", "conditions": "60 mg/kg once daily, after 13 days of treatment", "procedure": "Engraftment and growth of leukemic cells were monitored by noninvasive bioluminescence imaging in cell line xenograft models, as previously done ([47]). Details on the cell engraftment and dosing in mouse models are provided in the Supplemental Methods.\nLuc+ or MOLM13-Res -Luc+ cells, 0.5 million OCI-AML3 -Luc+ cells, and 10,000 Ba/F3-FLT3-ITD/F691L-GFP+ cells. Weekly tumor engraftment of cell line xenograft models were assessed after injection of D-luciferin (150mg/kg i.p.; Gold Biotechnology, Inc, St. Louis, MO) on Xenogen IVIS-200 imaging system (Perkin Elmer, Waltham, MA) or GFP monitoring by peripheral blood via BD LSR II flow cytometer (BD Biosciences, San Jose, CA). Signal intensity was analyzed using Living Image Software (PerkinElmer) or FlowJo v10.0.08 software (FlowJo, LLC, Ashland, OR). Mice were randomized to treatment groups based on signal intensity and leukemia burden. Drug treatments were started on days 3, 7, or 13 after cell injection in OCI-AML3, MOLM13, and MOLM13-Res xenografts, respectively. In murine AML transplantation model, 1 million FLT3-ITD+/-/IDH2-R140Q+/- splenocytes (in house colony) were intravenously injected in male NSG mice. On day 7, mice were started on drug treatments. All mice were observed daily and humanely euthanized when showing signs of progressive disease including, hind limb paralysis, weight loss more than 20%, and lethargy. […]"}, "[4]": {"target": "CaMK4 (Homo sapiens, UniProt Q16566)", "assay": "KiNativ, OCI cells live cell", "type": "cell-based", "conditions": "2 h, labeling site Lys2, peptide […]"}, "[5]": {"target": "CASK (Homo sapiens, UniProt O14936)", "assay": "KiNativ, OCI cells live cell", "type": "cell-based", "conditions": "2 h, labeling site Lys1, peptide […]"}, "[6]": {"target": "FRAP (Homo sapiens, UniProt P42345)", "assay": "KiNativ, OCI cells live cell", "type": "cell-based", "conditions": "2 h, labeling site ATP, peptide […]"}, "[7]": {"target": "IRAK2 (Homo sapiens, UniProt O43187)", "assay": "KiNativ, OCI cells live cell", "type": "cell-based", "conditions": "2 h, labeling site Lys1, peptide […]"}, "[8]": {"target": "LOK (Homo sapiens, UniProt O94804)", "assay": "KiNativ, OCI cells live cell", "type": "cell-based", "conditions": "labeling site Lys2, peptide DLKAGNVLMTLEGDIR"}, "[9]": {"target": "MAP3K6 (Homo sapiens, UniProt O95382)", "assay": "KiNativ, OCI cells live cell", "type": "cell-based", "conditions": "2 h, labeling site Lys2, peptide […]"}, "[10]": {"target": "MAP4K5 (Homo sapiens, UniProt Q9Y4K4)", "sequence (Q9Y4K4 whole entry)": "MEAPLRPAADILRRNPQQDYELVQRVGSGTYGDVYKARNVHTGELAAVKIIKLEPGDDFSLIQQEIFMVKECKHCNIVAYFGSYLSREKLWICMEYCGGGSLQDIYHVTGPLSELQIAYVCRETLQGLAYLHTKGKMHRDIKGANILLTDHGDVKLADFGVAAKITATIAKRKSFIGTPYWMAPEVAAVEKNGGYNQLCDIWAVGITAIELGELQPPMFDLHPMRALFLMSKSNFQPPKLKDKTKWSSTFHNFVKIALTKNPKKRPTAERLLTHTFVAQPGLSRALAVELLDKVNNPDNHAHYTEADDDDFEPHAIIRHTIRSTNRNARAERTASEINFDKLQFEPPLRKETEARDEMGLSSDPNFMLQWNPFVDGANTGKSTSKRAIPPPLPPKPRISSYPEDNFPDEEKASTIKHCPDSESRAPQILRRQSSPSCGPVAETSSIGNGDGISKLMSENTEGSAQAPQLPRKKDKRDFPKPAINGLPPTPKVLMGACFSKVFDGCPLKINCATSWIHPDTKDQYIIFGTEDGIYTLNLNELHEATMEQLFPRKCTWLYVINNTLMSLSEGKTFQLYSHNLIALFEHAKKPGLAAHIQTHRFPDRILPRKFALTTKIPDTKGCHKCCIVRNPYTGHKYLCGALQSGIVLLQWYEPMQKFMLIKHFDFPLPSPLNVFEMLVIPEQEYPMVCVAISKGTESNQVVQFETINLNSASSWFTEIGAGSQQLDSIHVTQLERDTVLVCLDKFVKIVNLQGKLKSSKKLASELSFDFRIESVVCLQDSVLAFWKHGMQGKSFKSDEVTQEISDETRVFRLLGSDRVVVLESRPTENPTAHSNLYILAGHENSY", "assay": "KiNativ, OCI cells live cell", "type": "cell-based", "conditions": "2 h"}, "[11]": {"tested_on": "MST1, MST2", "assay": "KiNativ, OCI cells live cell", "type": "cell-based, human", "conditions": "labeling site Lys2, peptide DIKAGNILLNTEGHAK"}, "[12]": {"target": "NEK1 (Homo sapiens, UniProt Q96PY6)", "assay": "KiNativ, OCI cells live cell", "type": "cell-based", "conditions": "2 h, labeling site Lys2, peptide […]"}, "[13]": {"target": "NEK2 (Homo sapiens, UniProt P51955)", "sequence (P51955 whole entry)": "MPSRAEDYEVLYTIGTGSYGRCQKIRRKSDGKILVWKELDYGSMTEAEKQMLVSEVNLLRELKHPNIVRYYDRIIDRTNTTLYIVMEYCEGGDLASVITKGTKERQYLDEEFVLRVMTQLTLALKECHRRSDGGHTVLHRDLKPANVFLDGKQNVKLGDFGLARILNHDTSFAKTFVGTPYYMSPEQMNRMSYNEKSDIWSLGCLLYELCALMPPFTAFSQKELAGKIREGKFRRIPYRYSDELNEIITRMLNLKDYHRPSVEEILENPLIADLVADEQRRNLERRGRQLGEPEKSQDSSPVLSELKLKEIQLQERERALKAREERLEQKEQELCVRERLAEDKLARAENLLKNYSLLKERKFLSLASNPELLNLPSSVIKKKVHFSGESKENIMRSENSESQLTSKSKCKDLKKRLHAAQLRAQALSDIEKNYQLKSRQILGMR", "assay": "KiNativ, OCI cells live cell", "type": "cell-based", "conditions": "2 h, labeling site Lys2, peptide […]"}, "[14]": {"target": "NLK (Homo sapiens, UniProt Q9UBE8)", "assay": "KiNativ, OCI cells live cell", "type": "cell-based", "conditions": "2 h, labeling site Lys2, peptide […]"}, "[15]": {"tested_on": "PCTAIRE2, PCTAIRE3", "assay": "KiNativ, OCI cells live cell", "type": "cell-based, human", "conditions": "labeling site Lys1, peptide SKLTENLVALKEIR"}, "[16]": {"target": "PEK (Homo sapiens, UniProt Q9NZJ5)", "assay": "KiNativ, OCI cells live cell", "type": "cell-based", "conditions": "2 h, labeling site Lys2, peptide […]"}, "[17]": {"target": "T3, PIP4K2C (Homo sapiens, UniProt Q8TBX8)", "T3 sequence (Q8TBX8 1-421)": "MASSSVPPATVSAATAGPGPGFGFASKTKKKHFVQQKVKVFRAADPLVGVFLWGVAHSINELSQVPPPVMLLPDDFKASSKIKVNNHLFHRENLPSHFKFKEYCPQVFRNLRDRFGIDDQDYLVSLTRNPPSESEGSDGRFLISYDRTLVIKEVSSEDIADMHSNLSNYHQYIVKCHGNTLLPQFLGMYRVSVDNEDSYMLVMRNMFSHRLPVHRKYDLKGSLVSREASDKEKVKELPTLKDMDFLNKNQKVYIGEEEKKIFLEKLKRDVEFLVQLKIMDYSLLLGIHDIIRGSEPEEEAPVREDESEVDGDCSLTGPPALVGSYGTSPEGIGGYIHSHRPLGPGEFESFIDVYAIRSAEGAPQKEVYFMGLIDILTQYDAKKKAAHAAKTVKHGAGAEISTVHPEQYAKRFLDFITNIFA", "assay": "KiNativ, OCI cells live cell", "type": "cell-based", "conditions": "2 h, labeling site ATP"}, "[18]": {"target": "PITSLRE (Homo sapiens, UniProt P21127)", "sequence (P21127 whole entry)": "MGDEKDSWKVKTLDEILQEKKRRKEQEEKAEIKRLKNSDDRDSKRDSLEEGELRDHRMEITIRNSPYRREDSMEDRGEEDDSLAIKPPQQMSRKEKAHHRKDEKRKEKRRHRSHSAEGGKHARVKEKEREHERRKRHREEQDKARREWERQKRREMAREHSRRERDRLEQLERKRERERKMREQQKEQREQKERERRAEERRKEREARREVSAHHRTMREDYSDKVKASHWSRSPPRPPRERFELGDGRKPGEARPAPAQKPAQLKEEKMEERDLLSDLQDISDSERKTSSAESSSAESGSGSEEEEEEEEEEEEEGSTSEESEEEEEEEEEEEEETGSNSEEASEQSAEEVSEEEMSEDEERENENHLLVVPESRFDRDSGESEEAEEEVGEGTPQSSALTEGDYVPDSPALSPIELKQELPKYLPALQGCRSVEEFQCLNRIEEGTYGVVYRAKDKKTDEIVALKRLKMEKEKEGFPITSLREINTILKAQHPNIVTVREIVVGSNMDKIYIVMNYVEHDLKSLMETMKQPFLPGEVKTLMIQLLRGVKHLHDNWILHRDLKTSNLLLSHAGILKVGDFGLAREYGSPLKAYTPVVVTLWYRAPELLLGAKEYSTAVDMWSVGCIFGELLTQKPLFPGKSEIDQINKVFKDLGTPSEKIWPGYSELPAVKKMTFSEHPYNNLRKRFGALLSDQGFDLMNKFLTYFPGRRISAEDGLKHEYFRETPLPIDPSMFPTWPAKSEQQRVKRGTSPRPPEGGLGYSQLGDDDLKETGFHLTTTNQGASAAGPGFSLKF", "assay": "KiNativ, OCI cells live cell", "type": "cell-based", "conditions": "2 h, labeling site Lys2, peptide […]"}, "[19]": {"target": "PKN1 (Homo sapiens, UniProt Q16512)", "sequence (Q16512 whole entry)": "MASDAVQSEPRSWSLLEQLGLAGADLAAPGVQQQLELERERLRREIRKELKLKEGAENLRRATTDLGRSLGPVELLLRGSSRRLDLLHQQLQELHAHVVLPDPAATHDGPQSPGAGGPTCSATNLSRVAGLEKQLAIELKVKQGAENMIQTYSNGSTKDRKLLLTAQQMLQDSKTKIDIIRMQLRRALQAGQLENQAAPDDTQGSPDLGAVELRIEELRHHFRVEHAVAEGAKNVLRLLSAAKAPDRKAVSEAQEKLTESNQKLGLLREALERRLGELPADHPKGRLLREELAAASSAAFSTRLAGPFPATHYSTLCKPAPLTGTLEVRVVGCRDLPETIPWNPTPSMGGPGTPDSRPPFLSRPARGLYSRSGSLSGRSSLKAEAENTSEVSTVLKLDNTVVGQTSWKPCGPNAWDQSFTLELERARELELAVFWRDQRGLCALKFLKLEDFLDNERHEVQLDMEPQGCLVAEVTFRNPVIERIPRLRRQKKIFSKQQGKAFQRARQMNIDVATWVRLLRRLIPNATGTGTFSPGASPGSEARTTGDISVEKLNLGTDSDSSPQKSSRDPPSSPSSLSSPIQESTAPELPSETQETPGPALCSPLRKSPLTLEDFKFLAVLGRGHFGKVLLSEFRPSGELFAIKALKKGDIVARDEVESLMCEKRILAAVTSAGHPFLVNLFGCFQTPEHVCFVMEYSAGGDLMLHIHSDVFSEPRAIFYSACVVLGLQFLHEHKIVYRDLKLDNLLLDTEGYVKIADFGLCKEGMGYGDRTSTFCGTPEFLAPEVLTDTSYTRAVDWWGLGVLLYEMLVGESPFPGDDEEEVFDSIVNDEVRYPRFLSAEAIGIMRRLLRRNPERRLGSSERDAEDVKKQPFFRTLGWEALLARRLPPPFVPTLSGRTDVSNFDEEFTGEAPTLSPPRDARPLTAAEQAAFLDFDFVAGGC", "assay": "KiNativ, OCI cells live cell", "type": "cell-based", "conditions": "2 h"}, "[20]": {"target": "PYK2 (Homo sapiens, UniProt Q14289)", "sequence (Q14289 whole entry)": "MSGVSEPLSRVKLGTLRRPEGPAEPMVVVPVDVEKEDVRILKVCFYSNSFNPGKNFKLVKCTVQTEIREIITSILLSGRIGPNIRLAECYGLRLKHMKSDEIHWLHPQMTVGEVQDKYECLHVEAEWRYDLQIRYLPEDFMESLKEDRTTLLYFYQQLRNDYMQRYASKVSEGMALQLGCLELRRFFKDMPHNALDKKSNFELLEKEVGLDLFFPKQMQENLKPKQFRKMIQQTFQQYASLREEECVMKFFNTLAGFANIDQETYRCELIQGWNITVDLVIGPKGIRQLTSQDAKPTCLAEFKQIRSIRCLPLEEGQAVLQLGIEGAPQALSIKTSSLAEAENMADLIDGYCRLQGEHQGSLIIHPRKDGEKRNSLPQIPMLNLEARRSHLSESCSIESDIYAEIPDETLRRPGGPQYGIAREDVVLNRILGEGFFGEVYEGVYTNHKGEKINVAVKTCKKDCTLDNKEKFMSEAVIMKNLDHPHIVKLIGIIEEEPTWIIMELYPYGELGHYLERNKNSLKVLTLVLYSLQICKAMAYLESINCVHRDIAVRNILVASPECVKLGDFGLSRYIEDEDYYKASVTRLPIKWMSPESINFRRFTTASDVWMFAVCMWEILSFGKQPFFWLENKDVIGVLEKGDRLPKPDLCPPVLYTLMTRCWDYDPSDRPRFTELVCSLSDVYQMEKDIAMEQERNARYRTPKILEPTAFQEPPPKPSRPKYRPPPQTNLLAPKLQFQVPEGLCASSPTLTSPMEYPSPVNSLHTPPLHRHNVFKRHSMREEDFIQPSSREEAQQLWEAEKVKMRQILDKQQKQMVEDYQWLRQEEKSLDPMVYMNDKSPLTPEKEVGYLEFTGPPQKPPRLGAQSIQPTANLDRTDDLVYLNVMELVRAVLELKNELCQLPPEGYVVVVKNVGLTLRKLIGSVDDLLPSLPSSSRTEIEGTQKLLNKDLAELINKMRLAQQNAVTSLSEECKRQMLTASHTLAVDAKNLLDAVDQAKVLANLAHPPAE", "assay": "KiNativ, OCI cells live cell", "type": "cell-based", "conditions": "2 h"}, "[21]": {"tested_on": "SRPK1, SRPK2", "assay": "KiNativ, OCI cells live cell", "type": "cell-based, human", "conditions": "labeling site Lys1, peptide FVAMKVVK"}, "[22]": {"target": "TLK2 (Homo sapiens, UniProt Q86UE8)", "sequence (Q86UE8 whole entry)": "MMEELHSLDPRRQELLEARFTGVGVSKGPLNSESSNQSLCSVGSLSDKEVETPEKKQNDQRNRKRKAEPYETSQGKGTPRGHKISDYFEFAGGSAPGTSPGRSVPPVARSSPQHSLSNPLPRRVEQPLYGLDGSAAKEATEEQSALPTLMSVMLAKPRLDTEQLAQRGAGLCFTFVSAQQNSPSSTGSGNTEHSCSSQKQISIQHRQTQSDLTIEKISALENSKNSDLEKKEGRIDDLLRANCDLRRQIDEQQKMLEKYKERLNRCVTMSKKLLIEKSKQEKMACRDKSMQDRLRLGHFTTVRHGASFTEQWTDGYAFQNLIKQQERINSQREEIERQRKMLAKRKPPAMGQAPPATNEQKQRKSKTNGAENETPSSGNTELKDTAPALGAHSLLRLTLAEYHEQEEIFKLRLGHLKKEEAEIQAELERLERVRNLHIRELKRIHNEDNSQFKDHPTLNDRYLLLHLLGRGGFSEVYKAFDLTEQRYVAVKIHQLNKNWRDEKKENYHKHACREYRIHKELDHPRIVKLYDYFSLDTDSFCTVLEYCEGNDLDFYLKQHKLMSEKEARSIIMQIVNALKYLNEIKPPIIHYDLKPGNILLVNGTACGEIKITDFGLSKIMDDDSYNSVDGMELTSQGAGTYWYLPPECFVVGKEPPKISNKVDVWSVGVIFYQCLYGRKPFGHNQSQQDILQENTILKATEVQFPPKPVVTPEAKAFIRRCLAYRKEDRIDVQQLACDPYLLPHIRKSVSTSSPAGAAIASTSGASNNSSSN", "assay": "KiNativ, OCI cells live cell", "type": "cell-based", "conditions": "2 h"}}}
{"smiles": "CN1CCN(Cc2ccc(Nc3ncc(Cl)c(Nc4ccccc4S(=O)(=O)N(C)C)n3)cc2)CC1", "note": "[TP-0903]", "values": [{"measurement": "Kd", "setting": "[1]", "result": "< 5", "unit": "nM"}, {"measurement": "Kd", "setting": "[2]", "result": "< 5", "unit": "nM"}, {"measurement": "Peripheral blood GFP signal compared with gilteritinib", "setting": "[3]", "result": "significantly lower"}, {"measurement": "inhibition at 0.1 µM", "setting": "[4]", "result": -2.6, "unit": "%"}, {"measurement": "inhibition at 0.1 µM", "setting": "[5]", "result": 31.2, "unit": "%"}, {"measurement": "inhibition at 0.1 µM", "setting": "[6]", "result": 7.9, "unit": "%"}, {"measurement": "inhibition at 0.1 µM", "setting": "[7]", "result": -9.1, "unit": "%"}, {"measurement": "Inhibition", "setting": "[8]", "result": 86.9, "unit": "%"}, {"measurement": "inhibition at 0.1 µM", "setting": "[9]", "result": -13.5, "unit": "%"}, {"measurement": "inhibition at 0.1 µM", "setting": "[10]; labeling site Lys1, peptide NVHTGELAAVKIIK", "result": 28.4, "unit": "%"}, {"measurement": "inhibition at 0.1 µM", "setting": "[10]; labeling site Lys2, peptide DIKGANILLTDHGDVK", "result": 60.8, "unit": "%"}, {"measurement": "Inhibition", "setting": "[11]", "result": 35.6, "unit": "%"}, {"measurement": "inhibition at 0.1 µM", "setting": "[12]", "result": -4.4, "unit": "%"}, {"measurement": "inhibition at 0.1 µM", "setting": "[13]", "result": 23.6, "unit": "%"}, {"measurement": "inhibition at 0.1 µM", "setting": "[14]", "result": -23, "unit": "%"}, {"measurement": "Inhibition", "setting": "[15]", "result": 89.6, "unit": "%"}, {"measurement": "inhibition at 0.1 µM", "setting": "[16]", "result": -9.6, "unit": "%"}, {"measurement": "inhibition at 0.1 µM", "setting": "[17]; peptide TLVIKEVSSEDIADMHSNLSNYHQYIVK", "result": -9.8, "unit": "%"}, {"measurement": "inhibition at 0.1 µM", "setting": "[17]; peptide VKELPTLKDMDFLNK", "result": -19.6, "unit": "%"}, {"measurement": "inhibition at 0.1 µM", "setting": "[18]", "result": -18.9, "unit": "%"}, {"measurement": "inhibition at 0.1 µM", "setting": "[19]; labeling site Lys1, peptide VLLSEFRPSGELFAIKALK", "result": 63.2, "unit": "%"}, {"measurement": "inhibition at 0.1 µM", "setting": "[19]; labeling site Lys2, peptide DLKLDNLLLDTEGYVK", "result": 33.7, "unit": "%"}, {"measurement": "inhibition at 0.1 µM", "setting": "[20]; labeling site Activation Loop, peptide YIEDEDYYKASVTR", "result": 40.6, "unit": "%"}, {"measurement": "inhibition at 0.1 µM", "setting": "[20]; labeling site Lys1, peptide INVAVKTCK", "result": 80, "unit": "%"}, {"measurement": "Inhibition", "setting": "[21]", "result": -36.9, "unit": "%"}, {"measurement": "inhibition at 0.1 µM", "setting": "[22]; labeling site Lys1, peptide YVAVKIHQLNK", "result": -7.2, "unit": "%"}, {"measurement": "inhibition at 0.1 µM", "setting": "[22]; labeling site Lys2, peptide YLNEIKPPIIHYDLKPGNILLVNGTACGEIK", "result": -3.1, "unit": "%"}]}
